# From ChEMBL document CHEMBL1201862, “PubChem BioAssay data set” (2004)
# Activity calls are given as the source filed them.
# Key:
# [1] = biological target: T1, Heat shock factor protein 1 (Mus musculus, UniProt P38532); assay: inhibition of MG132-induced HSE-luciferase signal, confirmation, cell-based, NIH3T3, luminescence, dose retest (AID 2382); format: functional;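 note: NIH3T3 fibroblasts with HSF1-driven luciferase reporter stressed by proteasome inhibitor MG132; luminescence from HSF1-driven luciferase expression after 8 hours of MG132 stress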
# T1 sequence (P38532 whole entry): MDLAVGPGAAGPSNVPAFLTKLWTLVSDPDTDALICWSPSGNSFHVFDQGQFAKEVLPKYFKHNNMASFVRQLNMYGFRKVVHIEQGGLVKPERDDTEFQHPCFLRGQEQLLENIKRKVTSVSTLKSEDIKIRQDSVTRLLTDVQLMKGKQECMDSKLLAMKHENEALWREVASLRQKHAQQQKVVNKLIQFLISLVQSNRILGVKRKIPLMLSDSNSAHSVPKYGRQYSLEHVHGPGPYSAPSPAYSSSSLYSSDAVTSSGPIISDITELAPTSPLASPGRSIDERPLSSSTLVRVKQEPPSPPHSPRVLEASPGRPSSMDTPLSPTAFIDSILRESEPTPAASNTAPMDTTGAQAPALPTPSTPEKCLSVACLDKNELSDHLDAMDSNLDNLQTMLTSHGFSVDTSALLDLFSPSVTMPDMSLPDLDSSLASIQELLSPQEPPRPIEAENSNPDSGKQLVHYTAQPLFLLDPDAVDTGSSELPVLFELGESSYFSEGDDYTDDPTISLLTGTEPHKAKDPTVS
# Cytochrome P450 1A2 = biological target: T2, Cytochrome P450 1A2 (Homo sapiens, UniProt P05177);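 note: PubChem cytochrome P450 panel assay, CYP1A2 panel member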
# T2 sequence (P05177 whole entry): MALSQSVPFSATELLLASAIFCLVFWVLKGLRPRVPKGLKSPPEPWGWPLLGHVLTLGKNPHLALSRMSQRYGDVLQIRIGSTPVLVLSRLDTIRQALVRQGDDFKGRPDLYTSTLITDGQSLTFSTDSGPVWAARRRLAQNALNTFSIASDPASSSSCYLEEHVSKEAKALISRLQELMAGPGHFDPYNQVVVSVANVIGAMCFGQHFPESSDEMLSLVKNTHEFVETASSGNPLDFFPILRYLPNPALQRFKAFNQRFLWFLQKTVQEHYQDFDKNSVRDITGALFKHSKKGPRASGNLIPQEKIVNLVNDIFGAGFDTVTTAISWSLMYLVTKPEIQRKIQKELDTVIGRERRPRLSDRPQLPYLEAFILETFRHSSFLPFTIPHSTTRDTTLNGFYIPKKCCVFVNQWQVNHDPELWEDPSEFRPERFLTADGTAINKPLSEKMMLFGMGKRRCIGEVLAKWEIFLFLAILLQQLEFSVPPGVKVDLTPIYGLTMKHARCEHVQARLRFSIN
# Cytochrome P450 2D6 = Cytochrome P450 2D6 (Homo sapiens, UniProt P10635);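 note: CYP2D6 member of a cytochrome P450 panel assay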
# Cytochrome P450 2C19 = Cytochrome P450 2C19 (Homo sapiens, UniProt P33261); assay: Cytochrome panel assay with activity outcomes. Panel member name: p450-cyp2c19 Compounds with AC50 equal or less than 10 uM are considered active; format: functional; conditions: read-out: AC50
# Cytochrome P450 2C9 = Cytochrome P450 2C9 (Homo sapiens, UniProt P11712)
# Cytochrome P450 3A4 = Cytochrome P450 3A4 (Homo sapiens, UniProt P08684);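 note: CYP3A4 tested as one member of a cytochrome P450 panel screen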
# H9c2 = assay: cells; format: functional, cell-based; conditions: Rattus norvegicus, H9c2, Myocardium;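 note: confirmatory concentration-response retest of ultra-high-throughput screening hits for modulation of myocardial damage; cell death induced by hydrogen peroxide oxidative stress; compound pretreatment for 60 min then peroxide exposure for 2 h; potency is for protecting the cells against peroxide damage rather than for killing them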
# [2] = biological target: T3, Replicative DNA helicase DnaB (Mycobacterium tuberculosis, UniProt P9WMR3); assay: DnaB intein splicing inhibitors, dose response, biochemical, cell-free fluorescence (AID 449749); format: functional
# T3 sequence (P9WMR3 whole entry): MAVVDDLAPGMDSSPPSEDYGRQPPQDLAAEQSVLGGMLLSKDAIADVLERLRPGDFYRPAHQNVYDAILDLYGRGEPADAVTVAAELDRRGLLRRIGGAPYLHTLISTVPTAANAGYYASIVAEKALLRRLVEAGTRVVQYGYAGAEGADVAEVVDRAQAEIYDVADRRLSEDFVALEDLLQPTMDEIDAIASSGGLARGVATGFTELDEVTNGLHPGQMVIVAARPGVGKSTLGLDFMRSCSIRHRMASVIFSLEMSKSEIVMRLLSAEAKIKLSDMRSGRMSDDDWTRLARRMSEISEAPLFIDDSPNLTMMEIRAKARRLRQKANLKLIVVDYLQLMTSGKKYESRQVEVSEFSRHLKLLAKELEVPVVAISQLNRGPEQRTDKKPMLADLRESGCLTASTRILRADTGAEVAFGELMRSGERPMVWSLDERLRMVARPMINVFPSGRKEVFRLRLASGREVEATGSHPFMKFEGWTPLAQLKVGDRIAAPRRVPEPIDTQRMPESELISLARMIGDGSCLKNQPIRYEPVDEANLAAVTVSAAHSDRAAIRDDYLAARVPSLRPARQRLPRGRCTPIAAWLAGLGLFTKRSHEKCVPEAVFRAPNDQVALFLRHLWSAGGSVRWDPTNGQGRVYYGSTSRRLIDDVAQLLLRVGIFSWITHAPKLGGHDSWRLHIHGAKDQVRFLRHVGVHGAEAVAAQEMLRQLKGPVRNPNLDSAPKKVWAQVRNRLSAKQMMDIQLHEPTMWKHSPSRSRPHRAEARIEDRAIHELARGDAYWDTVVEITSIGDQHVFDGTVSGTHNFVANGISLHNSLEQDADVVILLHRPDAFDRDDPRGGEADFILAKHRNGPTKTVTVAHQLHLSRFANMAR
# Protein RecA = biological target: T4, Protein RecA (Mycobacterium tuberculosis, UniProt P9WHJ3); assay: Fluorescence Cell-Free Homogeneous Dose Retest to Identify Inhibitors of RecA-Intein Splicing Activity. [Related pubchem assays (depositor defined):AID2097, AID2223, AID489010, AID492950]; format: functional
# T4 sequence (P9WHJ3 whole entry): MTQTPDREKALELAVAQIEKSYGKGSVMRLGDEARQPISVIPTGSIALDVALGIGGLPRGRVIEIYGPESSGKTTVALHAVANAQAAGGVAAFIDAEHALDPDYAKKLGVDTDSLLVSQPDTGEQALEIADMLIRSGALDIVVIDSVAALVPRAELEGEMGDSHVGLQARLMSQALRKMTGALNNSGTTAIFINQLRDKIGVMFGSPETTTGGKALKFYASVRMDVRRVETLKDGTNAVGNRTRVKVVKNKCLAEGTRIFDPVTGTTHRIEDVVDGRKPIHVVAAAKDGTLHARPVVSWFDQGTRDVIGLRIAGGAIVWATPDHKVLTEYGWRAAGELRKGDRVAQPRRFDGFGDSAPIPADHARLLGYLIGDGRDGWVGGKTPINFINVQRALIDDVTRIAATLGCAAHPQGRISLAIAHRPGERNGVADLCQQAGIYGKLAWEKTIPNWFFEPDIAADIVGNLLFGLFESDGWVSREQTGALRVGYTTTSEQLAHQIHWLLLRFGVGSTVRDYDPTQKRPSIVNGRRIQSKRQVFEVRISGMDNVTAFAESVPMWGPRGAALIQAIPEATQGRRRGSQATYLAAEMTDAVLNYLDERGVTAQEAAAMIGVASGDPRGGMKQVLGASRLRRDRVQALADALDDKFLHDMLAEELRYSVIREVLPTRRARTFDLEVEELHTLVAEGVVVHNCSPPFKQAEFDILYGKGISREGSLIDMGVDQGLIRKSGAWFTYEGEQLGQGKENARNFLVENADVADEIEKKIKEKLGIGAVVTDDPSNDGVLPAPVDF
# Paired box protein Pax-8 = Paired box protein Pax-8 (Homo sapiens, UniProt Q06710); assay: inhibitors of PAX8-driven TPO luciferase reporter, dose response, RMG-I cells, cherry-pick (AID 687027); format: functional, cell-based;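 note: luciferase reporter driven by Pax8 target thyroperoxidase promoter measured by SteadyGlo luminescence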
# [3] = Luminescence Cell-Based Dose Response HTS to Identify Inhibitors of 5'UTR Stem-Loop Driven Prion Protein mRNA Translation in H4 Neuroglioblastoma Cells. [Related pubchem assays: 1827 (Project Summary), 1813 (Primary HTS)]; format: functional
# [4] = inhibitors of SNCA 5'UTR-driven reporter translation, confirmation, H4 neuroglioma cells, luminescence (AID 1988); format: functional, cell-based
# [5] = inhibitors of firefly luciferase expression or activity, dose response, H4 neuroglioma cells, luminescence (AID 1990); format: functional, cell-based
# Sequence of Cytochrome P450 2D6 (P10635 whole entry): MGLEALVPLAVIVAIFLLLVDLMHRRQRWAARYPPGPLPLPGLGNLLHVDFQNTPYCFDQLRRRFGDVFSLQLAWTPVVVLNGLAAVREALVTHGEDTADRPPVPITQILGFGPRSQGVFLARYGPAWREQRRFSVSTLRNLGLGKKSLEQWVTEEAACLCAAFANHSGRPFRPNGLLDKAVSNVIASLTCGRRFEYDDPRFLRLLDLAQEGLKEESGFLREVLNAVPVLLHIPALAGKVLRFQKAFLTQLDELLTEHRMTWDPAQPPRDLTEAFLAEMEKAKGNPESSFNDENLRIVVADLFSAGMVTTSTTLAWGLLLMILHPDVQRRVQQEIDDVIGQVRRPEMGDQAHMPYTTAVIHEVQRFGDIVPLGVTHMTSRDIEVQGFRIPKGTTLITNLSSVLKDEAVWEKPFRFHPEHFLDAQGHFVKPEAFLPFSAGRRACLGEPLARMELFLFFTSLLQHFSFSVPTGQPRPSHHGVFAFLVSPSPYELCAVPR
# Sequence of Cytochrome P450 2C9 (P11712 whole entry): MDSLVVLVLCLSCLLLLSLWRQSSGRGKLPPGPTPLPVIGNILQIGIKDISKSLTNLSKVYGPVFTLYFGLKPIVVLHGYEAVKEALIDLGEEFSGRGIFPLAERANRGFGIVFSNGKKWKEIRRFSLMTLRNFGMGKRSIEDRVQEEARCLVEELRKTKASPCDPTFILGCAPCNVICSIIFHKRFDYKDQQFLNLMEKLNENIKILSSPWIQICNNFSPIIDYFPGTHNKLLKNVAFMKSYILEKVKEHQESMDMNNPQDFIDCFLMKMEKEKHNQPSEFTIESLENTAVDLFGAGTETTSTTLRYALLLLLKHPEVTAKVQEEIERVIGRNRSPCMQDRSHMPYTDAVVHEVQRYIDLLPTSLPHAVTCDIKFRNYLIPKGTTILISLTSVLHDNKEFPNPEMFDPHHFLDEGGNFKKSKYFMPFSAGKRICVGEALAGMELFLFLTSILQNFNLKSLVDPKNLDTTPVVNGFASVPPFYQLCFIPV
# Sequence of Paired box protein Pax-8 (Q06710 whole entry): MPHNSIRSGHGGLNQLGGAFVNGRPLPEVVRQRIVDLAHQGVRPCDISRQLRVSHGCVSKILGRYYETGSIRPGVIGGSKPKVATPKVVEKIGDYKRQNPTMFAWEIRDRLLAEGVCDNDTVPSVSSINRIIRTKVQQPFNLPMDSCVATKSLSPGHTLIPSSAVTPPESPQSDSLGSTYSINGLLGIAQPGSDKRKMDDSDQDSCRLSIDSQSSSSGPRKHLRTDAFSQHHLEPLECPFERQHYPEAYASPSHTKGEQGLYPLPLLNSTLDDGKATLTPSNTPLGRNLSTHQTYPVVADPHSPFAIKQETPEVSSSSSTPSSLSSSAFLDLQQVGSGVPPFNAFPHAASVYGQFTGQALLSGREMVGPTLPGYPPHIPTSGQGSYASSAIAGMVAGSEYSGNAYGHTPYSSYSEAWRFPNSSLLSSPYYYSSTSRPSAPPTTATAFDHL
# Sequence of Cytochrome P450 3A4 (P08684 whole entry): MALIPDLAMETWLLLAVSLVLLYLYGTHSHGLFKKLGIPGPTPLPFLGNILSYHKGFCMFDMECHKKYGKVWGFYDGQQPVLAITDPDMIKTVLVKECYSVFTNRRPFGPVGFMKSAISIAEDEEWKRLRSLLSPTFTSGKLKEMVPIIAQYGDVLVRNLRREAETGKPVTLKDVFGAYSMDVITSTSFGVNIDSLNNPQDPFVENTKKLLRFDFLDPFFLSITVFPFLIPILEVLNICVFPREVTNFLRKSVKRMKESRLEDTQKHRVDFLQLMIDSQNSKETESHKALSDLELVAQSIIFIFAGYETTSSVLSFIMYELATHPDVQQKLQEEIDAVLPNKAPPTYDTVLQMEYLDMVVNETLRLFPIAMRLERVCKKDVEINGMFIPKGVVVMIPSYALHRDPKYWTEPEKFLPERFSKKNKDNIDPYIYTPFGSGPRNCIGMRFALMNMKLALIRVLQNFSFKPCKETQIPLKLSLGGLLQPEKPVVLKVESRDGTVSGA
# Sequence of Cytochrome P450 2C19 (P33261 whole entry): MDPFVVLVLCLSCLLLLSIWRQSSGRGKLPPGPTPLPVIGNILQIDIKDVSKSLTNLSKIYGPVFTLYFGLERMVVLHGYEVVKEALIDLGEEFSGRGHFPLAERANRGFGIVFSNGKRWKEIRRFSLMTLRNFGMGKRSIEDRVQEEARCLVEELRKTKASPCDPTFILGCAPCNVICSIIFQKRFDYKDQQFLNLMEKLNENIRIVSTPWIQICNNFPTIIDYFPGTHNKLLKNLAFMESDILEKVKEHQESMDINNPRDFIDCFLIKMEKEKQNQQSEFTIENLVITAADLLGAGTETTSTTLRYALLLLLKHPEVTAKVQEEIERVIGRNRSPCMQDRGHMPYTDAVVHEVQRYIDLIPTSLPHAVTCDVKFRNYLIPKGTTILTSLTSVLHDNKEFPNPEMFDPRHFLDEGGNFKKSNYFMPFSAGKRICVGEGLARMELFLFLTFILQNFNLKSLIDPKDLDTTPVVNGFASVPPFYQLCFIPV
smiles,measurement,setting,value
O=C(CNC(=O)C12CC3CC(CC(C3)C1)C2)NCc1ccccc1,EC50,[1],> 195 µM (not active)
O=Cc1ccc(OC(=O)Cc2ccc(F)cc2)cc1,EC50,[1],> 195 µM (not active)
Cc1ccccc1OCC(=O)Nc1ccc([N+](=O)[O-])cc1,EC50,[1],> 195 µM (not active)
O=C(Oc1ccccc1)N1CCC[C@@]2(CCN(Cc3ccccc3)C2)C1,AC50,Cytochrome P450 1A2,15.8 µM (inconclusive)
same,AC50,Cytochrome P450 2D6,20 µM (inconclusive)
same,AC50,Cytochrome P450 2C19,20 µM (inconclusive)
same,AC50,Cytochrome P450 2C9,20 µM (inconclusive)
same,AC50,Cytochrome P450 3A4,15.8 µM (inconclusive)
C[C@@H]1[C@H]2C=C[C@@H]1[C@@H](c1c3ccc(=O)c(O)c-3oc3c(O)c(O)ccc13)[C@@H]2C(=O)O,AC50,Cytochrome P450 2C19,3.98 µM (inconclusive)
same,AC50,Cytochrome P450 2C9,7.94 µM (inconclusive)
C[C@@H]1Oc2ccc(C(=O)C[C@@H](C(=O)O)c3ccc4c(c3)OCO4)cc2O1,AC50,Cytochrome P450 1A2,0.794 µM (inconclusive)
same,AC50,Cytochrome P450 2C19,5.01 µM (inconclusive)
same,AC50,Cytochrome P450 2C9,6.31 µM (inconclusive)
CC(=O)c1cccc(NC(=O)Nc2ccc3c(c2)N(C)C(=O)CS3)c1,IC50,H9c2,> 79 µM (inactive)
C[C@@H](NC(=O)c1[nH]cnc1C(=O)NCC(=O)OCc1ccccc1)c1ccccc1,IC50,H9c2,> 79 µM (inactive)
CCCN(CCC)C(=O)CSc1nc2ccsc2c(=O)n1NC(=O)c1ccccc1,EC50,[1],> 195 µM (not active)
CC(C)n1nnnc1SCC(=O)NCc1ccc2c(c1)OCO2,AC50,Cytochrome P450 1A2,12.6 µM (inconclusive)
same,AC50,Cytochrome P450 2D6,25.1 µM (inconclusive)
same,AC50,Cytochrome P450 2C9,25.1 µM (inconclusive)
Cc1ccc(C)c(CN2C(=O)C3CCCN3c3ccc(S(=O)(=O)N4CCOCC4)cc32)c1 (stereo unspecified),AC50,Cytochrome P450 2C19,6.31 µM (inconclusive)
same,AC50,Cytochrome P450 2C9,14.1 µM (inconclusive)
Cn1ncc([N+](=O)[O-])c1C(=O)Nc1ccccc1Cl,EC50,[1],> 195 µM (not active)
COc1ccc(NS(=O)(=O)c2ccc3[nH]c(COc4ccc5ccccc5c4)nc3c2)cc1,EC50,[1],> 195 µM (not active)
O=C(NCc1ccco1)c1cnn2c(C(F)(F)F)cc(-c3cccs3)nc12,IC50,H9c2,34.1 µM (inactive)
CN1CCN(c2ncc3nc(CCc4ccccc4)c(=O)n(Cc4ccc(F)cc4)c3n2)CC1,AC50,Cytochrome P450 2C9,12.6 µM (inconclusive)
Cc1c(NC(=O)C2CCN(S(=O)(=O)c3ccc(Cl)cc3)CC2)c(=O)n(-c2ccccc2)n1C,AC50,Cytochrome P450 2C9,14.1 µM (inconclusive)
COCCn1nnnc1C(C(C)C)N(Cc1cccnc1)Cc1cc2cc(OC)ccc2nc1O (stereo unspecified),IC50,H9c2,21.8 µM (active)
CCc1ccccc1NC(=O)COc1cccc2ccc(C)nc12,EC50,[1],> 195 µM (not active)
CCOc1ccccc1C1C(C#N)=C(N)Oc2[nH]nc(CC)c21 (stereo unspecified),AC50,[2],13.4 µM (active)
same,AC50,Cytochrome P450 2C9,17.8 µM (inconclusive)
same,AC50,Cytochrome P450 3A4,7.08 µM (inconclusive)
same,EC50,Protein RecA,7.04 µM (active)
COc1ccc(CCNC(=O)c2nnc(O)c3ccccc23)cc1,AC50,Cytochrome P450 1A2,7.08 µM (inconclusive)
same,AC50,Cytochrome P450 2D6,5.01 µM (inconclusive)
same,AC50,Cytochrome P450 2C19,2.24 µM (inconclusive)
same,AC50,Cytochrome P450 2C9,3.16 µM (inconclusive)
same,AC50,Cytochrome P450 3A4,7.08 µM (inconclusive)
CC(=O)NC(CCc1ccc(Cl)c(Cl)c1)c1cccc(O)c(=O)c1 (stereo unspecified),AC50,Paired box protein Pax-8,2.08 µM (active)
same,IC50,H9c2,> 79 µM (inactive)
Cc1ccc(S(=O)(=O)N(C)C)cc1NC(=O)COC(=O)Cc1nnc(O)c2ccccc12,IC50,H9c2,> 79 µM (inactive)
O=C(CNC(=O)c1ccc(F)cc1)N/N=C/c1cc(Br)ccc1OC(=O)/C=C/c1ccco1,EC50,[3],12.1 µM (active)
same,EC50,[4],8.72 µM (active)
same,EC50,[5],11.8 µM (active)
same,IC50,H9c2,19 µM (active)
CC(=O)Nc1cc(-c2cccc(C(=O)N(C)C)c2)cn2c(-c3ccc(C(C)=O)cc3)cnc12,IC50,H9c2,> 79 µM (inactive)
CCCOc1ccc2[nH]c(C(=O)N/N=C/c3cc(OC)c(OC)c(OC)c3)cc2c1,AC50,Paired box protein Pax-8,2.89 µM (active)
same,IC50,H9c2,> 79 µM (inactive)
Cc1[nH]c2ccccc2c1/C=N/NC(=O)c1cc(-c2ccccc2)[nH]n1,IC50,H9c2,> 79 µM (inactive)
C[C@H](CO)N1C[C@H](C)[C@@H](CN(C)Cc2ccc(Cl)c(Cl)c2)OCCCC[C@H](C)Oc2ccc(NC(=O)Nc3ccccc3)cc2C1=O,AC50,Paired box protein Pax-8,8.65 µM (active)
CCn1cc(C(=O)N/N=C(/C)c2ccc(F)cc2)c(=O)c2cc(F)c(N3CCCC3)cc21,AC50,Cytochrome P450 2C9,10 µM (inconclusive)
CCCN(/C=N/c1sc2c(c1C#N)CCCCC2)CCC,AC50,Cytochrome P450 2D6,15.8 µM (inconclusive)
same,AC50,Cytochrome P450 2C9,12.6 µM (inconclusive)
O=[N+]([O-])c1ccc(O)c(/C=N/c2ccc3oc(Cc4ccc(Cl)cc4)nc3c2)c1,EC50,[1],> 195 µM (not active)
CC1(C)OC(=O)C(/C=N/CC(O)c2ccccc2)=C(O)O1 (stereo unspecified),AC50,Cytochrome P450 1A2,25.1 µM (inconclusive)
same,AC50,Cytochrome P450 2C9,31.6 µM (inconclusive)
Nc1nc2c(ncn2[C@@H]2O[C@H](CO)[C@@H](O)[C@H]2O)c(=S)[nH]1 [THIOGUANOSINE],AC50,Paired box protein Pax-8,1.16 µM (active)
